Data from patent US10857163B1, “Compositions that preferentially potentiate subtypes of GABAA receptors and methods of use thereof” (priority 2019, dated 2020).

How the values were obtained:
GABAA receptor subtypes = assay: FLIPR panel of 18 GABAA receptor subtypes, overall statement; assay type: cell-based; details: 18 subtypes
Protocol: (§1) Cells expressing the indicated GABAA receptor subtype were exposed to gamma-aminobutyric acid in the presence of varying concentrations of either CV-10155 or SPNC-019, calcium flux was measured using a fluorometric imaging plate reader (FLIPR), and EC50 values for compounds were determined.
The only structural difference between CV-10155 and SPNC-019 is the stereochemical configuration of the hydroxyl and methyl groups attached to the carbon atom at position 3 of the steroid core. […] The results further indicate that the isomeric purity of neurosteroid compositions greatly impacts the utility of such compositions as therapeutic agents.

α6β3γ2 GABAA receptor = biological target: T1, α6β3γ2 GABAA receptor (Homo sapiens, UniProt P18507+P28472+Q16445); assay: FLIPR modulation of GABAA receptor subtype in expressing cells; assay type: cell-based; details: cells exposed to GABA plus compound, — = value not measurable
T1 construct: expressed in transfected cells
T1 sequence (Q16445 20-453): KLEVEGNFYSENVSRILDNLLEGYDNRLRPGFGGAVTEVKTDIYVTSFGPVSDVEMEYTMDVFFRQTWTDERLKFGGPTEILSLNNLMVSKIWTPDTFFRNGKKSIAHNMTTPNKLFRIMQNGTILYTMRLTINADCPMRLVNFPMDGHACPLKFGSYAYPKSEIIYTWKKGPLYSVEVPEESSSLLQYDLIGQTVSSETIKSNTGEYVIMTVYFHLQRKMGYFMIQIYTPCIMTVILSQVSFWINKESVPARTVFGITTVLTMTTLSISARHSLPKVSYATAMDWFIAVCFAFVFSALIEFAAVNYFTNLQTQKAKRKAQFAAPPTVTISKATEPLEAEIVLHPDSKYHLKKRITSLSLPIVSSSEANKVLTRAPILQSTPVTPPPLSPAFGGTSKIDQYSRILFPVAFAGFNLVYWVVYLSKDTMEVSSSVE
T1 sequence (P28472 26-473): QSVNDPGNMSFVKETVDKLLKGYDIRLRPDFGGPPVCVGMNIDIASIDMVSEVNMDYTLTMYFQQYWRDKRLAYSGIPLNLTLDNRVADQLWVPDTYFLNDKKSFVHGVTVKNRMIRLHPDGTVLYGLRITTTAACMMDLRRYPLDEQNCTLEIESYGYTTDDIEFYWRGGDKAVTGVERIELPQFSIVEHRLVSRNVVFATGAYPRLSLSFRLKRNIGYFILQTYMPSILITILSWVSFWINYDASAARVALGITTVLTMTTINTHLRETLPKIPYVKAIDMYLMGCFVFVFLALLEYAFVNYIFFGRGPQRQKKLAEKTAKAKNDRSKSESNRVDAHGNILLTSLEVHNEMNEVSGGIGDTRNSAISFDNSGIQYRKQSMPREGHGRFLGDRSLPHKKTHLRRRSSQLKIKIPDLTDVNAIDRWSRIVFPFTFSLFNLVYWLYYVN
T1 sequence (P18507 40-475): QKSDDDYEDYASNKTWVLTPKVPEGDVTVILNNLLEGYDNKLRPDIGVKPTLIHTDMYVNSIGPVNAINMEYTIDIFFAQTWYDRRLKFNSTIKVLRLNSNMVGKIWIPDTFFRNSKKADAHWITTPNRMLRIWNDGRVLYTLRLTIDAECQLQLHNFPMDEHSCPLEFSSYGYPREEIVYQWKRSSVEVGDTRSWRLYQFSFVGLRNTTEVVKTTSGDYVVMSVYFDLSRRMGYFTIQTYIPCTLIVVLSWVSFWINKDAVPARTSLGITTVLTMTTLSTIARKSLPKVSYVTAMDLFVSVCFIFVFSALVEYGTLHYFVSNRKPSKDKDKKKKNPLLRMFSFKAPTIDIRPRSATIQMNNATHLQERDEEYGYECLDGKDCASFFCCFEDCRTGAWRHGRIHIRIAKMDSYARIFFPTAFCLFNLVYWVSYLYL
Protocol: as §1

α5β3γ2 GABAA receptor = biological target: T2, α5β3γ2 GABAA receptor (Homo sapiens, UniProt P18507+P28472+P31644); assay: as above; assay type: cell-based; details: cells exposed to GABA plus compound, — = value not measurable
T2 construct: expressed in transfected cells
T2 sequence (P31644 32-462): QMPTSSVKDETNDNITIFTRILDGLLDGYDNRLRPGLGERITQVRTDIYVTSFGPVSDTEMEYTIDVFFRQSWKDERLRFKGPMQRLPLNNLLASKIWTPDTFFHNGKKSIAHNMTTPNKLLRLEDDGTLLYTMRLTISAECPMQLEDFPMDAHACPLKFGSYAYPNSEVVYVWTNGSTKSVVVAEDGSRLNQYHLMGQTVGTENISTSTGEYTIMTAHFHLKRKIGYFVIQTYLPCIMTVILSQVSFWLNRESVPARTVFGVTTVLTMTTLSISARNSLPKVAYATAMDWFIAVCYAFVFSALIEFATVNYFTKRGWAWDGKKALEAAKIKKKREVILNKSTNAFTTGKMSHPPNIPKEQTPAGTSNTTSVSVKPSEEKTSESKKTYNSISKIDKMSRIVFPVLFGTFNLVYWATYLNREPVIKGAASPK
T2 sequence (P28472 26-473): as the sequence (P28472 26-473) above
T2 sequence (P18507 40-475): as the sequence (P18507 40-475) above
Protocol: as §1

α5β2γ2 GABAA receptor = biological target: T3, α5β2γ2 GABAA receptor (Homo sapiens, UniProt P18507+P31644+P47870); assay: as above; assay type: cell-based; details: cells exposed to GABA plus compound, — = value not measurable
T3 construct: expressed in transfected cells
T3 sequence (P31644 32-462): as the sequence (P31644 32-462) above
T3 sequence (P47870 25-512 limits assumed): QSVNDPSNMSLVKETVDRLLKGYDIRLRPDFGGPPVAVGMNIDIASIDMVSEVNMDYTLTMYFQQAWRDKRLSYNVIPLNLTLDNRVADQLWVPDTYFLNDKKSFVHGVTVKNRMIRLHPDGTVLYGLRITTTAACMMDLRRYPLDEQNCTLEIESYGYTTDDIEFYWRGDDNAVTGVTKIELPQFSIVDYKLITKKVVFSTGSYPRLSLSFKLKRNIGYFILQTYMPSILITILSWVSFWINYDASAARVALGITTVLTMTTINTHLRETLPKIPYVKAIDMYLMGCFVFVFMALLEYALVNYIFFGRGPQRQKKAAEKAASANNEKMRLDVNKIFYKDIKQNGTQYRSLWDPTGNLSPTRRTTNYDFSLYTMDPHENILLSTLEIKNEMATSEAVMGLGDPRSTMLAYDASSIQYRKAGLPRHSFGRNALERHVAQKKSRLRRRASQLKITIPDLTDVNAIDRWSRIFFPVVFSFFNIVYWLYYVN
T3 sequence (P18507 40-475): as the sequence (P18507 40-475) above
Protocol: as §1

[1] = biological target: picrotoxin binding site of GABAA receptors; details: membranes isolated from the cortices of rat brains; Table 1 of WO 2016/061527; read-out: IC50 in the TBPS displacement assay; cited from earlier work
α4β3δ GABAA receptor [2] = biological target: T4, α4β3δ GABAA receptor (Homo sapiens, UniProt O14764+P28472+P48169); assay: FLIPR modulation of GABAA receptor subtype in expressing cells; assay type: cell-based; parameters: expressed in transfected cells
T4 sequence (P48169 36-554): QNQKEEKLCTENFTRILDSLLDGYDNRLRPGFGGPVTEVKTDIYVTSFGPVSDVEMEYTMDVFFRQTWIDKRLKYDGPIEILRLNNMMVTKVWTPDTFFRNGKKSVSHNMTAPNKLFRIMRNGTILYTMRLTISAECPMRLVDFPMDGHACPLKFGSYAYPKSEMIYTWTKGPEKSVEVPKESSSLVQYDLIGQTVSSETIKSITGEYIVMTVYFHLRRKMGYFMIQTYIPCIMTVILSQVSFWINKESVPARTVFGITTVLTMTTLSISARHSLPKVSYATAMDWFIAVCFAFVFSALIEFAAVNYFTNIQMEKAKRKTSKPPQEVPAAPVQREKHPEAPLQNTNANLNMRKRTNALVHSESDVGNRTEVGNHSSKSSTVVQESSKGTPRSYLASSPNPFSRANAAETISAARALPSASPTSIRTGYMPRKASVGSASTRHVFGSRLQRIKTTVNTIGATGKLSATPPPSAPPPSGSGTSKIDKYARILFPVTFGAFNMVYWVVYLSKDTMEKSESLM
T4 sequence (P28472 26-473): as the sequence (P28472 26-473) above
T4 sequence (O14764 25-452): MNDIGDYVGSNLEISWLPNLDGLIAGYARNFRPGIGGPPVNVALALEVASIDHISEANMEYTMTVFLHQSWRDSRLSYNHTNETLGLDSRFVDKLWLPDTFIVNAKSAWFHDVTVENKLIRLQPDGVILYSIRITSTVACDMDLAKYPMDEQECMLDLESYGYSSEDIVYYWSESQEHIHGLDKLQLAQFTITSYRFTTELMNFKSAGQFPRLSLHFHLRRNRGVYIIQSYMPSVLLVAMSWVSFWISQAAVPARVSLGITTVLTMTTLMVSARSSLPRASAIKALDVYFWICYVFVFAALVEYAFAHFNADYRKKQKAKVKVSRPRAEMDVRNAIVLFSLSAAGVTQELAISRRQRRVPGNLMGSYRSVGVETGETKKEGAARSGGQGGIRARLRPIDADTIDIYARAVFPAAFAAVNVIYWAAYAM
Protocol: as §1

α6β2γ2 GABAA receptor = biological target: T5, α6β2γ2 GABAA receptor (Homo sapiens, UniProt P18507+P47870+Q16445); assay: as above; assay type: cell-based; details: cells exposed to GABA plus compound, — = value not measurable
T5 construct: expressed in transfected cells
T5 sequence (Q16445 20-453): as the sequence (Q16445 20-453) above
T5 sequence (P47870 25-512 limits assumed): as the sequence (P47870 25-512 limits assumed) above
T5 sequence (P18507 40-475): as the sequence (P18507 40-475) above
Protocol: as §1

α3β2γ2 GABAA receptor = biological target: T6, α3β2γ2 GABAA receptor (Homo sapiens, UniProt P18507+P34903+P47870); assay: as above; assay type: cell-based; details: cells exposed to GABA plus compound, — = value not measurable
T6 construct: expressed in transfected cells
Protocol: as §1

α3β1γ2 GABAA receptor = biological target: T7, α3β1γ2 GABAA receptor (Homo sapiens, UniProt P18505+P18507+P34903); assay: as above; assay type: cell-based; details: cells exposed to GABA plus compound, — = value not measurable
T7 construct: expressed in transfected cells
Protocol: as §1

α1β2γ2 GABAA receptor [3] = biological target: T8, α1β2γ2 GABAA receptor (Homo sapiens, UniProt P14867+P18507+P47870); assay: as above; assay type: cell-based; details: cells exposed to GABA plus compound, — = value not measurable
T8 construct: expressed in transfected cells
T8 sequence (P14867 28-456): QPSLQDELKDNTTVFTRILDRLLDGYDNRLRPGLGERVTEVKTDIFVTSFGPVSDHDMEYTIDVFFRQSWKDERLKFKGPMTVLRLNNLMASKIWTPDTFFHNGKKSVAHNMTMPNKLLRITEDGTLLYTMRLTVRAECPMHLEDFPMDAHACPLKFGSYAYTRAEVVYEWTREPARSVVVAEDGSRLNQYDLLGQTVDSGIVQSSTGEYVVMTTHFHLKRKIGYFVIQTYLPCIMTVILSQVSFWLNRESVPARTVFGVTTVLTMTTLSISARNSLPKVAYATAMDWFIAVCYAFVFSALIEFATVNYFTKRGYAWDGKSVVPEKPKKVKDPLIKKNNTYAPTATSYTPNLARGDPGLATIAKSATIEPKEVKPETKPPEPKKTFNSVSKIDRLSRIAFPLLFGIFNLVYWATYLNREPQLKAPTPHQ
T8 sequence (P47870 25-512 limits assumed): as the sequence (P47870 25-512 limits assumed) above
T8 sequence (P18507 40-475): as the sequence (P18507 40-475) above
Protocol: as §1

α4β3γ2 GABAA receptor = biological target: T9, α4β3γ2 GABAA receptor (Homo sapiens, UniProt P18507+P28472+P48169); assay: as above; assay type: cell-based; details: cells exposed to GABA plus compound, — = value not measurable
T9 construct: expressed in transfected cells
T9 sequence (P48169 36-554): as the sequence (P48169 36-554) above
T9 sequence (P28472 26-473): as the sequence (P28472 26-473) above
T9 sequence (P18507 40-475): as the sequence (P18507 40-475) above
Protocol: as §1

α3β3γ2 GABAA receptor = biological target: T10, α3β3γ2 GABAA receptor (Homo sapiens, UniProt P18507+P28472+P34903); assay: as above; assay type: cell-based; details: cells exposed to GABA plus compound, — = value not measurable
T10 construct: expressed in transfected cells
Protocol: as §1

α4β1γ2 GABAA receptor = biological target: T11, α4β1γ2 GABAA receptor (Homo sapiens, UniProt P18505+P18507+P48169); assay: as above; assay type: cell-based; details: cells exposed to GABA plus compound, — = value not measurable
T11 construct: expressed in transfected cells
T11 sequence (P48169 36-554): as the sequence (P48169 36-554) above
T11 sequence (P18505 26-474): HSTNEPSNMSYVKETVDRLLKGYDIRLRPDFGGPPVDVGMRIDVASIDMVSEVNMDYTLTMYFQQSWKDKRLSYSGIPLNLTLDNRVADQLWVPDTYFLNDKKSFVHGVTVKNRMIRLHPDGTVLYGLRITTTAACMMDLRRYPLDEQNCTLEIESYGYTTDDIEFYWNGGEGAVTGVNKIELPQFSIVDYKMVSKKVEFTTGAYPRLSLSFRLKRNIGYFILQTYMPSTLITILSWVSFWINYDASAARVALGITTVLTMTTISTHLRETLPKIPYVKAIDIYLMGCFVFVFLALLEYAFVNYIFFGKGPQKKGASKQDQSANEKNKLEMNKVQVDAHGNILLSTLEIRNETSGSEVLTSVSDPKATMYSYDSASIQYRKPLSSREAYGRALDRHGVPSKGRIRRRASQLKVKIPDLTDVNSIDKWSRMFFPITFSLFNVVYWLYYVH
T11 sequence (P18507 40-475): as the sequence (P18507 40-475) above
Protocol: as §1

α2β2γ2 GABAA receptor = biological target: T12, α2β2γ2 GABAA receptor (Homo sapiens, UniProt P18507+P47869+P47870); assay: as above; assay type: cell-based; details: cells exposed to GABA plus compound, — = value not measurable
T12 construct: expressed in transfected cells
Protocol: as §1

α1β1γ2 GABAA receptor = biological target: T13, α1β1γ2 GABAA receptor (Homo sapiens, UniProt P14867+P18505+P18507); assay: as above; assay type: cell-based; details: cells exposed to GABA plus compound, — = value not measurable
T13 construct: expressed in transfected cells
Protocol: as §1

α5β1γ2 GABAA receptor = biological target: T14, α5β1γ2 GABAA receptor (Homo sapiens, UniProt P18505+P18507+P31644); assay: as above; assay type: cell-based; details: cells exposed to GABA plus compound, — = value not measurable
T14 construct: expressed in transfected cells
T14 sequence (P31644 32-462): as the sequence (P31644 32-462) above
T14 sequence (P18505 26-474): as the sequence (P18505 26-474) above
T14 sequence (P18507 40-475): as the sequence (P18507 40-475) above
Protocol: as §1

α1β3γ2 GABAA receptor = biological target: T15, α1β3γ2 GABAA receptor (Homo sapiens, UniProt P14867+P18507+P28472); assay: as above; assay type: cell-based; details: cells exposed to GABA plus compound, — = value not measurable
T15 construct: expressed in transfected cells
Protocol: as §1

α2β1γ2 GABAA receptor = biological target: T16, α2β1γ2 GABAA receptor (Homo sapiens, UniProt P18505+P18507+P47869); assay: as above; assay type: cell-based; details: cells exposed to GABA plus compound, — = value not measurable
T16 construct: expressed in transfected cells
Protocol: as §1

α2β3γ2 GABAA receptor = biological target: T17, α2β3γ2 GABAA receptor (Homo sapiens, UniProt P18507+P28472+P47869); assay: as above; assay type: cell-based; details: cells exposed to GABA plus compound, — = value not measurable
T17 construct: expressed in transfected cells
Protocol: as §1

α6β1γ2 GABAA receptor = biological target: T18, α6β1γ2 GABAA receptor (Homo sapiens, UniProt P18505+P18507+Q16445); assay: as above; assay type: cell-based; details: cells exposed to GABA plus compound, — = value not measurable
T18 construct: expressed in transfected cells
Protocol: as §1

α1β2γ2 GABAA receptor [4] = biological target: T8, α1β2γ2 GABAA receptor; details: 10 μM neurosteroid, GABA 2 μM (EC20), LTK cells; Table 2 of WO 2016/061527; cited from earlier work
α4β3δ GABAA receptor [5] = biological target: T4, α4β3δ GABAA receptor; parameters: expressed in transfected cells; host or cells: CHO cells (transient); details: 10 μM neurosteroid, GABA 2 μM (EC20), CHO cells; Table 2 of WO 2016/061527; cited from earlier work

## C[C@]1(O)CC[C@@]2(C)[C@@H](CC[C@@H]3[C@@H]2CC[C@]2(C)[C@@H](C(=O)Cn4cc(C#N)cn4)CC[C@@H]32)C1 [SPNC-019, reference compound]
GABAA receptor subtypes
  modulating activity across the GABAA receptor subtypes tested: no modulating activity in 15 of the 18 GABAA receptor subtypes tested
α6β3γ2 GABAA receptor
  EC50: 1770 nM
α5β3γ2 GABAA receptor
  EC50: 1810 nM
α5β2γ2 GABAA receptor
  EC50: 1200 nM

## C[C@@]1(O)CC[C@@]2(C)[C@H](CC[C@@H]3[C@@H]2CC[C@]2(C)[C@@H](C(=O)Cn4cc(C#N)cn4)CC[C@@H]32)C1 [Compound 10]
[1]
  IC50: < 10 nM

## C[C@@]1(O)CC[C@@]2(C)[C@@H](CC[C@@H]3[C@@H]2CC[C@]2(C)[C@@H](C(=O)Cn4cc(C#N)cn4)CC[C@@H]32)C1 [CV-10155]
GABAA receptor subtypes
  modulating activity across the GABAA receptor subtypes tested: some level of positive allosteric modulating activity in all of the GABAA receptor subtypes tested
α4β3δ GABAA receptor [2]; FLIPR, cells exposed to GABA plus compound, — = value not measurable
  EC50: 106 nM
α4β3δ GABAA receptor [2]; data of Example 1
  activity on α4β3δ compared with α1β2γ2 GABAA receptors, in words: substantially more active on α4β3δ GABAA receptors than on α1β2γ2 GABAA receptors
α4β3δ GABAA receptor [2]; isomerically pure composition, α4β3δ versus α1β2γ2
  EC50 for α4β3δ receptors lower than for α1β2γ2 receptors: at least 5 fold
α6β3γ2 GABAA receptor
  EC50: 245 nM
α6β2γ2 GABAA receptor
  EC50: 1100 nM
α3β2γ2 GABAA receptor
  EC50: 1820 nM
α3β1γ2 GABAA receptor
  EC50: 946 nM
α1β2γ2 GABAA receptor [3]
  EC50: 839 nM
α4β3γ2 GABAA receptor
  EC50: 1330 nM
α5β3γ2 GABAA receptor
  EC50: 1300 nM
α3β3γ2 GABAA receptor
  EC50: 273 nM
α4β1γ2 GABAA receptor
  EC50: 204 nM
α2β2γ2 GABAA receptor
  EC50: 213 nM
α1β1γ2 GABAA receptor
  EC50: 521 nM
α5β1γ2 GABAA receptor
  EC50: 762 nM
α5β2γ2 GABAA receptor
  EC50: 359 nM
α1β3γ2 GABAA receptor
  EC50: 520 nM
α2β1γ2 GABAA receptor
  EC50: 253 nM
α2β3γ2 GABAA receptor
  EC50: 296 nM
α6β1γ2 GABAA receptor
  EC50: 359 nM

## C[C@@]1(O)CC[C@@]2(C)[C@@H](CC[C@@H]3[C@@H]2CC[C@]2(C)[C@@H](C(=O)Cn4ccc(C#N)n4)CC[C@@H]32)C1 [Compound 121]
α1β2γ2 GABAA receptor [4]
  efficacy: relative potentiation of GABA-mediated conductance, α1β2γ2: > 500%
α4β3δ GABAA receptor [5]
  efficacy: relative potentiation of GABA-mediated conductance, α4β3δ: > 500%
[1]
  IC50: 10 to 50 nM
